From patent publication US4016258A, “Vasoactive intestinal peptide from fowl” (priority 1975, dated 1977)
Ends that are not written are not given here.

How the values were obtained:
guinea pig gallbladder = assay: Isolated smooth-muscle organ strips superfused in series: guinea pig gallbladder; conditions: guinea pig gallbladder strip superfused with Krebs solution
Text: (§1) 2. Isolated smooth-muscle organs
(§2) Four strips of smooth-muscle organs: rat stomach, guinea pig trachea, rat colon, and guinea pig gallbladder, were placed in series and superfused with warm physiological solution (Krebs), bubbled with 95% O2 and 5% CO2. The organ strips were attached to special transducers which measured their contraction or relaxation.

guinea pig trachea = assay: Isolated smooth-muscle organ strips superfused in series: guinea pig trachea
Text: as §1, §2

rat stomach = assay: Isolated smooth-muscle organ strips superfused in series: rat stomach; conditions: rat stomach strip superfused with Krebs solution; often initial brief contraction followed by relaxation
Text: as §1, §2

rat colon = assay: Isolated smooth-muscle organ strips superfused in series: rat colon; conditions: rat colon strip superfused with Krebs solution
Text: as §1, §2

Intact anesthetized dogs = assay: Intact anesthetized dogs: infusion into one femoral artery, femoral blood flow and aortic blood pressure measured; format: in vivo, dog; conditions: for hypotensive effect compared with the porcine peptide: dogs, comparison with porcine vasoactive intestinal peptide
Text: 1. Intact anesthetized dogs
The peptide was infused into one femoral artery, and the blood flow in that artery, as well as the aortic blood pressure, were continually measured. During the infusion of the peptide, blood pressure fell and blood flow increased, indicating peripheral vasodilation.

With “HSDAVFTDNYSRFRKQMAVKKYLNSVLT-NH2 [chicken peptide]” the “effects on gallbladder strip” value (guinea pig gallbladder) was “variable”, the “relaxation of trachea compared with porcine peptide” value (guinea pig trachea; doses eliciting equal relaxation of stomach, chicken vs porcine peptide) was “many times greater” and the “effect on trachea strip” value (guinea pig trachea; guinea pig trachea strip superfused with Krebs solution) was “relaxation”. For the same substance, the “relaxant potency on guinea pig trachea relative to other smooth muscles tested” value (guinea pig trachea; in comparison with porcine vasoactive intestinal peptide) was “relatively more potent relaxant”, the “effect on stomach strip” value (rat stomach) was “relaxation” and the “effect on colon strip” value (rat colon) was “usually contracted”. The “aortic blood pressure during infusion” value (Intact anesthetized dogs; anesthetized dogs, infusion into femoral artery) was “fell”, the “blood flow in femoral artery during infusion” value (Intact anesthetized dogs; anesthetized dogs, infusion into femoral artery, indicates peripheral vasodilation) was “increased” and the “hypotensive effect compared with the porcine peptide” value (Intact anesthetized dogs) was “less marked and shorter lasting”. For the same substance, the “hypotensive effect compared with the porcine peptide” value (Intact anesthetized dogs; listed as peptide) was “relatively short duration”.
